Assay results reported in ChEMBL document CHEMBL1134853, “Essential structural factors of acetogenins, potent inhibitors of mitochondrial complex I” (Bioorg Med Chem Lett, 2002).

Molecular target: T1, NADH dehydrogenase [ubiquinone] 1 alpha subcomplex subunit 11 (Bos taurus, UniProt Q8HXG6)
T1 sequence (Q8HXG6 whole entry): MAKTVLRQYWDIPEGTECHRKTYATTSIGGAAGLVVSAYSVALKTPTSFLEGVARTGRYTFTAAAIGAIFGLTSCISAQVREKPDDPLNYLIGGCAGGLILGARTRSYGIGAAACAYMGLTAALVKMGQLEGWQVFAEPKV
Assay: Inhibitory activity against bovine heart mitochondrial NADH ubiquinone oxidoreductase (complex I)

| Compound | IC50 [nM] |
| --- | --- |
| C[C@H]1C=C(CCCCCCCCCCCC[C@@H](O)[C@H]2CC[C@H]([C@H]3CC[C@H]([C@@H](C)O)O3)O2)C(=O)O1 | 3.1 |
| CCCCCCCCCC[C@@H](O)[C@H]1CC[C@H]([C@H]2CC[C@H]([C@H](O)CCCCCCCCCCCCC3=C[C@H](C)OC3=O)O2)O1 [ISODESAACETYLUVARICIN] | 0.9 |
